Data on eleven molecules can be found in patent US20170137410A1, “FUSED CYCLOALKYL-PYRIMIDINE COMPOUNDS AND USES THEREOF” (Medivation Technologies, Inc., priority 2014, published 2017).

Common to all, as to assay type: biochemical
One assay has as its target Trk C (Homo sapiens, UniProt Q16288). Description: HotSpot kinase assay against Trk C. To be noted: HotSpot 33P assay, ATP 10 μM-30 μM. Here is the method: (§1) Kinase assays were performed using test compounds against a panel of Trk kinases: Trk A; Trk B; and Trk C. Each compound was tested at a concentration of 0.1 μM in single duplicate mode against the three kinases. Compounds were prepared as 10 mM stock solutions in DMSO prior to use in the assay. The control compound, staurosporine, was tested at 10 concentrations with three-fold serial dilution starting at 20 μM. IC50 values and curve fits were obtained using Prism (GraphPad Software). IC50 values were determined for staurosporine for comparison.
(§2) The screening was performed using the “HotSpot” assay platform. The assay measures the conversion of a peptide substrate to ^33P-labelled phosphorylated product. Briefly, specific kinase/substrate pairs along with required cofactors were prepared in reaction buffer. Specifically, the substrate was prepared in reaction buffer (20 mM Hepes, pH 7.5; 10 mM MgCl2; 1 mM EGTA; 0.02% Brij35; 0.02 mg/mL BSA; 0.1 mM Na3VO4; 2 mM DTT; 1% DMSO), followed by delivery of any required cofactor to the resulting substrate solution. The corresponding kinase was delivered into the substrate solution and the reaction mixture was mixed gently. Compound was delivered into the reaction mixture, followed 15-20 min later by addition of a mixture of ATP (Sigma, St. Louis Mo.) and ^33P ATP (specific activity 0.01 μCi/μL final; Perkin Elmer, Waltham, Mass.) to a final concentration of 10 μM-30 μM to initiate the reaction. Reactions were carried out at RT for 120 min, followed by spotting of the reactions onto P81 ion exchange filter paper (Whatman #3698-915; Whatman Inc., Piscataway, N.J.). Unbound phosphate was removed by extensive washing of filters in 0.75% phosphoric acid. […] The percent of enzyme inhibition was calculated based on the percent of remaining kinase activity.

The target of the next assay is T1, activated IR (Homo sapiens, UniProt P06213).
T1 construct: purchased Millipore 14-803
T1 sequence (P06213 28-1382): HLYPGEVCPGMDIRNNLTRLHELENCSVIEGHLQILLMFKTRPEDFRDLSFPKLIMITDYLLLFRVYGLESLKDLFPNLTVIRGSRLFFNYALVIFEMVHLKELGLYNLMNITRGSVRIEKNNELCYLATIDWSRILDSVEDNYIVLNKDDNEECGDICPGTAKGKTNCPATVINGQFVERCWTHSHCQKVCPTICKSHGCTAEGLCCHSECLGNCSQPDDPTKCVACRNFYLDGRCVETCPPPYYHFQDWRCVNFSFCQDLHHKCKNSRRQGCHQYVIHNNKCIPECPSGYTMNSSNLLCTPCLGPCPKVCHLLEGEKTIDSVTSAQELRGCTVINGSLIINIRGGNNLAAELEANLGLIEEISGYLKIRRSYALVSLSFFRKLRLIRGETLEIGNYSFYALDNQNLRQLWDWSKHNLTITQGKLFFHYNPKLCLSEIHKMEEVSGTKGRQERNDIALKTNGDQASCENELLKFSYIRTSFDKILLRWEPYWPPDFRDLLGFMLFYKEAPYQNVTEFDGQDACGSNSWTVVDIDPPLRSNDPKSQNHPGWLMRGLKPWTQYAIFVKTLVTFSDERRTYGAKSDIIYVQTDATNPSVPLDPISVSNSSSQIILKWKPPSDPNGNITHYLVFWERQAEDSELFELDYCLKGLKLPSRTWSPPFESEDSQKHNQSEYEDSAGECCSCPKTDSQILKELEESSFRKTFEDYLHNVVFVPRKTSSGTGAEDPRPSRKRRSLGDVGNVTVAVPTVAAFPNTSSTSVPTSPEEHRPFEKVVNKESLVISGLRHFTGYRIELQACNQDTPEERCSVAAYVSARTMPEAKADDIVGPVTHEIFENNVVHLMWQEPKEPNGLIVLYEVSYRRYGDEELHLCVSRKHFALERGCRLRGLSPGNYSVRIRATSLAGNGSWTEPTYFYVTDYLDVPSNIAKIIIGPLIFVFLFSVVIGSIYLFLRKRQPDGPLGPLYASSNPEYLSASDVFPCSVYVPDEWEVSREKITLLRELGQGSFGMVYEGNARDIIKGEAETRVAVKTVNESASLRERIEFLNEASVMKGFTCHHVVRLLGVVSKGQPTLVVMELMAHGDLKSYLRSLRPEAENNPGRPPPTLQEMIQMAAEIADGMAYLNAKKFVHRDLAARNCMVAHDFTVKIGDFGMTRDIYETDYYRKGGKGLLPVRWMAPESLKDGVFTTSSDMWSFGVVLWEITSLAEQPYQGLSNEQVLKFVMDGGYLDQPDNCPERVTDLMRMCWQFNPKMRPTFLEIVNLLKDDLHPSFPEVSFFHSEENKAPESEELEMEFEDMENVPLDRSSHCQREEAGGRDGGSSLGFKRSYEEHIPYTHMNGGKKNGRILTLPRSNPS
Description: In vitro IR enzymatic assay (ADP-Glo). To be noted: ATP 50 μM; for inhibition at 1 µM: compound 1 μM; for inhibition at 3 µM: compound 3 μM; for inhibition at 30 µM: compound 30 μM. How it is done: (§3) Inhibition of IGF-1R and IR kinases by compounds described herein were tested. The IC50 values were measured in vitro using an ADP-Glo kinase assay Kit (Promega). For the IGF-1R assay, active recombinant IGF-1R (Millipore #14-802) was used at 1 ng/reaction, the substrate IGF-1R tide (Millipore #12-527) was used at 125 μM and ATP was used at 100 μM. For the IR assay, active recombinant IR (Millipore #14-803) was used at 1 ng/reaction, the substrate Axl tide (Millipore #12-516) was used at 125 μM and ATP at 50 μM. Kinase reactions in both assays were conducted at 30° C. for 20 min with increasing concentrations of the test compounds.
(§4) The assay results as the percent inhibition of binding are presented in Tables B2 and B3 for IGF-1R and IR respectively.

A further assay concerns the target Trk A (Homo sapiens, UniProt P04629). Kind of assay: HotSpot kinase assay against Trk A. To be noted: HotSpot 33P assay, ATP 10 μM-30 μM. How it is done: as §1, §2
In a further assay the target is T2, activated IGF-1R (Homo sapiens, UniProt P08069).
T2 construct: purchased Millipore 14-802
T2 sequence (P08069 31-1367): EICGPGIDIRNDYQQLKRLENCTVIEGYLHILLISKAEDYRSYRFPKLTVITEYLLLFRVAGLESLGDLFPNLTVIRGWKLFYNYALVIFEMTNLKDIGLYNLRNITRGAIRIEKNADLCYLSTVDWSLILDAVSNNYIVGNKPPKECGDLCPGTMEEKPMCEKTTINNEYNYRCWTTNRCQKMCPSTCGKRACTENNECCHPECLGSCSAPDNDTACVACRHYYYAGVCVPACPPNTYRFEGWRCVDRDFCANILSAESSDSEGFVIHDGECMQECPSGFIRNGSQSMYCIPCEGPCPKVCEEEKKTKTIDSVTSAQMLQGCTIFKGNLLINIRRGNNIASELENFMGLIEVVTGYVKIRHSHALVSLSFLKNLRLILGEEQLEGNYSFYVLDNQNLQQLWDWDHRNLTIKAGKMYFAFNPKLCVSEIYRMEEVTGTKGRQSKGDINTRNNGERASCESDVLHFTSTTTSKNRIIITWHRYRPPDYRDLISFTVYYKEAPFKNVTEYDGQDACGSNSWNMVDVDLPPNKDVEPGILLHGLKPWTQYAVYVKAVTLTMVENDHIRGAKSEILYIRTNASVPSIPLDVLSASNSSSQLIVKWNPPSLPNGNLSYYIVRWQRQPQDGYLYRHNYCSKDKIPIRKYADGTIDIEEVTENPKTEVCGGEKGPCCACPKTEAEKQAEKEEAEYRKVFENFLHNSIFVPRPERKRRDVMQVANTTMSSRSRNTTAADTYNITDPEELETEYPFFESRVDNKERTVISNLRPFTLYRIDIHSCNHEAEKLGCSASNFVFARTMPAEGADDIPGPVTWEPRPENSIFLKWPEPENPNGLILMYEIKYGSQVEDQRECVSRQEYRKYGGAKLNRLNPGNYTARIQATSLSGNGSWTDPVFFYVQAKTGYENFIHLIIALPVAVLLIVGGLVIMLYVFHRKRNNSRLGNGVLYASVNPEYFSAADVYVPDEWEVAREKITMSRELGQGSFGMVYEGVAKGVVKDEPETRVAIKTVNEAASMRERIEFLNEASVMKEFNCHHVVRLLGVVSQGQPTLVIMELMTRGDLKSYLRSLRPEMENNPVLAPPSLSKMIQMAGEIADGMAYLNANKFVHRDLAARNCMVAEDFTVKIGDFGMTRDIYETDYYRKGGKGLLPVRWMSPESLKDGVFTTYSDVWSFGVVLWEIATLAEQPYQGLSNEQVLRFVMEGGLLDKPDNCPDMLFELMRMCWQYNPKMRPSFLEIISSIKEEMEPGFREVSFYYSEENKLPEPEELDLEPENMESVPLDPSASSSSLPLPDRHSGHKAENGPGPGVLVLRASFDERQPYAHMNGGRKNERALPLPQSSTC
Kind of assay: In vitro IGF-1R enzymatic assay (ADP-Glo). The settings on record: ATP 100 μM; for inhibition at 1 µM: compound 1 μM; for inhibition at 3 µM: compound 3 μM; for inhibition at 10 µM: compound 10 μM; for inhibition at 30 µM: compound 30 μM. How it is done: as §3, §4
In general terms: In ADP-Glo the light output rises with the ADP produced.

A further assay deals with Trk B (Homo sapiens, UniProt Q16620). Description: HotSpot kinase assay against Trk B. The settings on record: HotSpot 33P assay, ATP 10 μM-30 μM. Here is the method:
as §1, §2

Trk C, sequence (Q16288 32-839): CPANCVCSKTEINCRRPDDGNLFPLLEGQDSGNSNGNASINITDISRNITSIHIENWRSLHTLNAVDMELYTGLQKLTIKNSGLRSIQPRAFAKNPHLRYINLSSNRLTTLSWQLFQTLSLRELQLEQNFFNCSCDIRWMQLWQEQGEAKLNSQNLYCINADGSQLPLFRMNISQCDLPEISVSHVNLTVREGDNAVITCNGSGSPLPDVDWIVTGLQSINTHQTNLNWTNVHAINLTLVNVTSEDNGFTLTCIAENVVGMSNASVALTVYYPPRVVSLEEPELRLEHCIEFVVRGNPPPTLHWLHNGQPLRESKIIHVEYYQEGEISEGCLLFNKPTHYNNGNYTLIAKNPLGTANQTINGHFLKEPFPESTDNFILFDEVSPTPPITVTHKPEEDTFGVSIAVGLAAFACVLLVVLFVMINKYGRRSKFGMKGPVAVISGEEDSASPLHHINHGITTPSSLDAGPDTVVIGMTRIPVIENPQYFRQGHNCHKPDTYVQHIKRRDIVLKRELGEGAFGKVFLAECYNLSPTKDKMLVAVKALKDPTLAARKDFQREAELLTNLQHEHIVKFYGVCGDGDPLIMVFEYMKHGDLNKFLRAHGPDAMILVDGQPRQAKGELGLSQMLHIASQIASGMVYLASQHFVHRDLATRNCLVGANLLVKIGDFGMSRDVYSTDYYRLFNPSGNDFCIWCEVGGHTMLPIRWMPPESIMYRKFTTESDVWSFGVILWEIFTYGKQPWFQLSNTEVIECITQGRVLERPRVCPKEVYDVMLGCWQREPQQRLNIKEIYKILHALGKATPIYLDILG
Trk B, sequence (Q16620 32-822): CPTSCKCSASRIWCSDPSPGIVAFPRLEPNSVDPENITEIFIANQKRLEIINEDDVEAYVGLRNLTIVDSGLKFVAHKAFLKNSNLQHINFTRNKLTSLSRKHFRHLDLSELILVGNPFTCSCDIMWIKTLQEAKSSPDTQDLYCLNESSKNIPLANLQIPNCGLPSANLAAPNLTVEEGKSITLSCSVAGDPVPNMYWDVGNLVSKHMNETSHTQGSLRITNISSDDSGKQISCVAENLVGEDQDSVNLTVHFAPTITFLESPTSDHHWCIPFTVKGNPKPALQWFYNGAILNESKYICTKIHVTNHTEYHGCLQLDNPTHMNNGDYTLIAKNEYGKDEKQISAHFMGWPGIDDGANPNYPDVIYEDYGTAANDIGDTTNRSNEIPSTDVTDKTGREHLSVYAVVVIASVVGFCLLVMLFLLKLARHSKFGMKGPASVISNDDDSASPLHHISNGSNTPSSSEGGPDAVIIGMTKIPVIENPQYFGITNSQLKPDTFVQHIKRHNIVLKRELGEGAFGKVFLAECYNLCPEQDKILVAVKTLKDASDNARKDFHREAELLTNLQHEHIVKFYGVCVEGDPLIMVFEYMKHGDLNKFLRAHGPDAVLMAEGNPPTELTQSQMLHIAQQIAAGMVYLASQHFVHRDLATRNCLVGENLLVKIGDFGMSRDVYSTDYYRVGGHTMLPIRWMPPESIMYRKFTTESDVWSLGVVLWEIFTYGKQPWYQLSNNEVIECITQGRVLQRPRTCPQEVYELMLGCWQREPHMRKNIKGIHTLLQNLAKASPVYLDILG
Trk A, sequence (P04629 33-796): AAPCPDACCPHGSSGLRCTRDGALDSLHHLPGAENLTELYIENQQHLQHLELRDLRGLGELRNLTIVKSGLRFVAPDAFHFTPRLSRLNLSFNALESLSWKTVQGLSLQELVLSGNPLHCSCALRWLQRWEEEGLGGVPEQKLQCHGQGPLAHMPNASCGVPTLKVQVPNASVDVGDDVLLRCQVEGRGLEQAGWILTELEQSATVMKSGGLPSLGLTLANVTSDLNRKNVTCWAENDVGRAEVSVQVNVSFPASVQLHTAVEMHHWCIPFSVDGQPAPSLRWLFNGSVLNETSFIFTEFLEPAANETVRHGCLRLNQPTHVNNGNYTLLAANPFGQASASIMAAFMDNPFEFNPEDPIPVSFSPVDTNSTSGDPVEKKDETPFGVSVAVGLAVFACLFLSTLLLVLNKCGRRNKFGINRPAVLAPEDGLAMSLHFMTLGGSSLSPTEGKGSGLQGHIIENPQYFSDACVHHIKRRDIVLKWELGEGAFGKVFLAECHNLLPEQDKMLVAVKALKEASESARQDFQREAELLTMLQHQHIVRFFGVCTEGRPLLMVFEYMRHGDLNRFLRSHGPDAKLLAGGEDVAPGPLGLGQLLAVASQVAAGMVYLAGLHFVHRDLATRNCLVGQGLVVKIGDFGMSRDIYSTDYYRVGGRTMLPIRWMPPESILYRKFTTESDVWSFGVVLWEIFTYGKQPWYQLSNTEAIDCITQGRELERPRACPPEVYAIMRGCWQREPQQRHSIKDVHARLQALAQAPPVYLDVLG

On to `CN1CCN(C(=O)[C@H]2CCCN2c2nc3c(c(Nc4cc(C5CCCC5)n[nH]4)n2)CCC3)CC1=O` [136a, 4-[(2R)-1-[4-[(3-cyclopentyl-1H-pyrazol-5-yl)amino]-6,7-dihydro-5H-cyclopenta[d]pyrimidin-2-yl]pyrrolidine-2-carbonyl]-1-methyl-piperazin-2-one], for which the results for the IC50 against Trk C, against Trk A and against Trk B were 83 nM, 237 nM and 113 nM, respectively. The figures for the inhibition at 1 µM against activated IR and at activated IGF-1R were 64% and 72%, respectively.
In the case of `CC1(C)CCN(C(=O)[C@@H]2CCCN2c2nc3c(c(Nc4cc(C5CCCC5)n[nH]4)n2)CCC3)CC1` [135b, [(2S)-1-[4-[(3-cyclopentyl-1H-pyrazol-5-yl)amino]-6,7-dihydro-5H-cyclopenta[d]pyrimidin-2-yl]pyrrolidin-2-yl]-(4,4-dimethyl-1-piperidyl)methanone], at Trk C, 2.5 nM corresponded to half-maximal inhibition (IC50). Also, on activated IR, the inhibition (usually the relative decrease from the control value, in per cent) at 1 µM turned out to be 11%; the inhibition at 3 µM worked out at 26%; the inhibition at 30 µM came to 88%. Also, the IC50 – broadly, the concentration that gives 50% inhibition – against Trk A is 12 nM. Also, on activated IGF-1R, the inhibition at 1 µM amounted to 12%, the inhibition at 3 µM was found to be 14%, the inhibition at 10 µM was found to be 43% and the inhibition at 30 µM is 82%. In addition, inhibition against Trk B was half-maximal at 1 nM (IC50).
On Trk C, `CN1CCN(C(=O)[C@@H]2CCCN2c2nc3c(c(Nc4cc(C5CCCC5)n[nH]4)n2)CCC3)CC1=O` [136b, 4-[(2S)-1-[4-[(3-cyclopentyl-1H-pyrazol-5-yl)amino]-6,7-dihydro-5H-cyclopenta[d]pyrimidin-2-yl]pyrrolidine-2-carbonyl]-1-methyl-piperazin-2-one] came in with an IC50 of 42.4 nM. Besides, on activated IR, the inhibition at 1 µM is -2%, the inhibition at 3 µM was 21% and the inhibition at 30 µM was 72%. The molecule further had an IC50 against Trk A of 1730 nM. On activated IGF-1R, the inhibition at 1 µM is 15%, the inhibition at 3 µM amounted to 12%, the inhibition at 10 µM turned out to be 28% and the inhibition at 30 µM came to 63%. The molecule also yielded an IC50 against Trk B of 106 nM.
Regarding `CC(C)c1cc(Nc2nc(N3CCC[C@@H]3C(=O)N3CCC(F)(F)C3)nc3c2CCC3)n[nH]1` [139a, (R)-(3,3-difluoropyrrolidin-1-yl)(1-(4-((5-isopropyl-1H-pyrazol-3-yl)amino)-6,7-dihydro-5H-cyclopenta[d]pyrimidin-2-yl)pyrrolidin-2-yl)methanone], the IC50 worked out at 144 nM against Trk C, 669 nM on Trk A and 258 nM against Trk B. In addition, the inhibition at 1 µM at activated IR was found to be 42%.
In the same order, the values of `CC(C)c1cc(Nc2nc(N3CCC[C@H]3C(=O)N3CCC(F)(F)C3)nc3c2CCC3)n[nH]1` [111b, (S)-(3,3-difluoropyrrolidin-1-yl)(1-(4-((5-isopropyl-1H-pyrazol-3-yl)amino)-6,7-dihydro-5H-cyclopenta[d]pyrimidin-2-yl)pyrrolidin-2-yl)methanone] are 0.7 nM, 53 nM, 2 nM and 35%.
With `CN(C)C(=O)[C@@H]1CCCN1c1nc2c(c(Nc3cc(C4CCOCC4)[nH]n3)n1)CCC2` [91b, (S)-N,N-dimethyl-1-(4-(5-(tetrahydro-2H-pyran-4-yl)-1H-pyrazol-3-ylamino)-6,7-dihydro-5H-cyclopenta[d]pyrimidin-2-yl)pyrrolidine-2-carboxamide], the IC50 against Trk C amounted to 362 nM. Besides, on activated IR, the inhibition at 1 µM was found to be 1%, the inhibition at 3 µM was -2% and the inhibition at 30 µM came to 7%. Also, 6310 nM corresponded to half-maximal inhibition against Trk A (IC50). Besides, on activated IGF-1R, the inhibition at 1 µM was determined as 0%, the inhibition at 3 µM was found to be 4%, the inhibition at 10 µM was -2% and the inhibition at 30 µM is 21%. This molecule had an IC50 against Trk B of 902 nM.
For `CC(C)c1cc(Nc2nc(N3CCC[C@@H]3C(=O)N3CC(F)(F)C(F)(F)C3)nc3c2CCC3)n[nH]1` [112a, (R)-(1-(4-((5-isopropyl-1H-pyrazol-3-yl)amino)-6,7-dihydro-5H-cyclopenta[d]pyrimidin-2-yl)pyrrolidin-2-yl)(3,3,4,4-tetrafluoropyrrolidin-1-yl)methanone], the figures for the IC50 at Trk C, at Trk A and against Trk B were 279 nM, 670 nM and 628 nM, respectively. Besides, the inhibition at 1 µM at activated IR is 35%.
`O=C([C@H]1CCCN1c1nc2c(c(Nc3cc(C4CCCC4)[nH]n3)n1)CCC2)N1CC(F)(F)C(F)(F)C1` [110a, (R)-(1-(4-((5-cyclopentyl-1H-pyrazol-3-yl)amino)-6,7-dihydro-5H-cyclopenta[d]pyrimidin-2-yl)pyrrolidin-2-yl)(3,3,4,4-tetrafluoropyrrolidin-1-yl)methanone]: the IC50 against Trk C was found to be 80.4 nM; against Trk A, 189 nM; on Trk B, 171 nM. The inhibition at 1 µM against activated IR is 32%; against activated IGF-1R, 31%. The inhibition at 3 µM was determined as 64% against activated IR and 61% against activated IGF-1R. Moreover, the figures for the inhibition at 30 µM against activated IR and on activated IGF-1R were 97% and 96%, respectively. The inhibition at 10 µM on activated IGF-1R came to 83%.
In the case of `CC(C)c1cc(Nc2nc(N3CCC[C@H]3C(=O)N3CCCC3)nc3c2CCC3)n[nH]1` [138b, (S)-(1-(4-((5-isopropyl-1H-pyrazol-3-yl)amino)-6,7-dihydro-5H-cyclopenta[d]pyrimidin-2-yl)pyrrolidin-2-yl)(pyrrolidin-1-yl)methanone], the IC50 was 1.4 nM at Trk C, 141 nM against Trk A and 5 nM at Trk B. The inhibition at 1 µM at activated IR worked out at 21%. Moreover, the inhibition at 3 µM at activated IR came out at 46%; against activated IGF-1R, 57%. Moreover, the inhibition at 30 µM against activated IR was determined as 92%; at activated IGF-1R it was 94%. Further, the inhibition at 10 µM at activated IGF-1R came to 80%.
Turning to `CN(C(=O)[C@@H]1CCCN1c1nc2c(c(Nc3cc(C4CCCC4)n[nH]3)n1)CCC2)c1nccs1` [70b, (2S)-1-[4-[(3-cyclopentyl-1H-pyrazol-5-yl)amino]-6,7-dihydro-5H-cyclopenta[d]pyrimidin-2-yl]-N-methyl-N-thiazol-2-yl-pyrrolidine-2-carboxamide], the IC50 against Trk C turned out to be 1.2 nM. Besides, at activated IR, the inhibition at 1 µM worked out at 30%, the inhibition at 3 µM worked out at 60% and the inhibition at 30 µM was determined as 97%. In addition, on Trk A, the IC50 was found to be 26 nM. At activated IGF-1R, the inhibition at 1 µM came to 35%, the inhibition at 3 µM was 57%, the inhibition at 10 µM was determined as 83% and the inhibition at 30 µM stood at 95%. Besides, the IC50 on Trk B came out at 2 nM.
`CN(C)C(=O)[C@H]1CCCN1c1nc2c(c(Nc3cc(C4CCOCC4)[nH]n3)n1)CCC2` [91a, (R)—N,N-dimethyl-1-(4-((5-(tetrahydro-2H-pyran-4-yl)-1H-pyrazol-3-yl)amino)-6,7-dihydro-5H-cyclopenta[d]pyrimidin-2-yl)pyrrolidine-2-carboxamide] registered an IC50 against Trk C of 180 nM. Besides, at activated IR, the inhibition at 1 µM came to 5%, the inhibition at 3 µM came to 16% and the inhibition at 30 µM is 45%. This molecule also came in with an IC50 against Trk A of 1440 nM. In addition, on activated IGF-1R, the inhibition at 1 µM amounted to 6%, the inhibition at 3 µM amounted to 14%, the inhibition at 10 µM is 14% and the inhibition at 30 µM amounted to 38%. On Trk B, this molecule yielded an IC50 of 403 nM.
